The results in this text go back to ChEMBL document CHEMBL3046739, “Effects of imidacloprid on transmission of tomato spotted wilt tospovirus to pepper, tomato and tobacco by Frankliniella fusca Hinds (Thysanoptera: Thripidae)” (2001).

In assay [1] the test system is Frankliniella fusca. Nature of the assay: Insecticidal activity against Frankliniella fusca assessed as effect on probing/feeding bout on mustard plants at 7.1 g a.i./1000 plants measured as duration of potential drops by electronic penetration graph analysis (reference value: 1.28 +/- 0.15 min). The class given is functional.
Assay [2] deals with Frankliniella fusca. Nature of the assay: Insecticidal activity against Frankliniella fusca immature thrips isolated from infected tobacco plants assessed reduction in tomato spotted wilt tospovirus transmission on petunia leaf by DAS-ELISA. The class given is functional. On the set-up: scale not given: the % may be the effect or the level left. Background: ELISA stands for enzyme-linked immunosorbent assay.

The subject of assay [3] is Frankliniella fusca. Nature of the assay: Insecticidal activity against Frankliniella fusca assessed as effect on probing/feeding bout on pepper plants at 7.1 g a.i./1000 plants measured as duration of potential drops by electronic penetration graph analysis (reference value: 0.01 +/- 0.01 min). The format is functional.
For assay [4], the system named is Frankliniella fusca. Nature of the assay: Insecticidal activity against Frankliniella fusca assessed as effect on probing/feeding bout on pepper plants at 14.4 g a.i./1000 plants measured as duration of potential drops by electronic penetration graph analysis (reference value: 0.04 +/- 0.02 min). The format is functional.
In assay [5] the test system is Frankliniella fusca. Briefly: Insecticidal activity against Frankliniella fusca assessed as effect on probing/feeding bout on pepper plants at 14.4 g a.i./1000 plants measured as number of potential drops by electronic penetration graph analysis (reference value: 0.28 +/- 0.03 /hr). The class given is functional.
In assay [6] the test system is Frankliniella fusca. Nature of the assay: Insecticidal activity against Frankliniella fusca assessed as effect on probing/feeding bout on pepper plants at 7.1 g a.i./1000 plants measured as number of potential drops by electronic penetration graph analysis (reference value: 0.03 +/- 0.01 /hr). The class given is functional.
In assay [7] the test system is Frankliniella fusca. Nature of the assay: Insecticidal activity against Frankliniella fusca assessed as reduction in tomato spotted wilt tospovirus transmission in compound pretreated tomato plant at 11.3 g a.i./1000 plants 8 days prior to 48 hr insect-infestation followed by foliar application at 7.1 g a.i./1000 plants measured after 21 days in field conditions. The format is functional. On the set-up: scale not given: the % may be the effect or the level left.

Assay [8] deals with Frankliniella fusca. Briefly: Insecticidal activity against Frankliniella fusca assessed as reduction in tomato spotted wilt tospovirus transmission in compound pre-treated pepper plant at 11.3 g a.i./1000 plants 8 days prior to 48 hr insect-infestation followed by foliar application at 7.1 g a.i./1000 plants measured after 21 days in field conditions. The format is functional. More on the design: scale not given: the % may be the effect or the level left.

In assay [9] the test system is Frankliniella fusca. Briefly: Insecticidal activity against Frankliniella fusca assessed as tomato spotted wilt tospovirus transmission in compound pre-treated tobacco plant at 9.9 g a.i./1000 plants 60 days prior to 48 hr insect-infestation followed by foliar application at 7.1 g a.i./1000 plants measured after 21 days in green house conditions (reference value: 82.5 +/- 0.05%). The class given is functional.

In assay [10] the test system is Frankliniella fusca. Nature of the assay: Insecticidal activity against Frankliniella fusca assessed as effect on probing/feeding bout on mustard plants at 14.4 g a.i./1000 plants measured as number of potential drops by electronic penetration graph analysis (reference value: 0.2 +/- 0.09 /hr). The format is functional.
The test system of assay [11] is Frankliniella fusca. Nature of the assay: Insecticidal activity against Frankliniella fusca assessed as reduction in tomato spotted wilt tospovirus transmission in compound pretreated pepper plant at 9.9 g a.i./1000 plants 60 days prior to 48 hr insect-infestation followed by foliar application at 7.1 g a.i./1000 plants measured after 21 days in green house conditions. The class given is functional. More on the design: scale not given: the % may be the effect or the level left.

Assay [12] deals with Frankliniella fusca. Nature of the assay: Insecticidal activity against Frankliniella fusca assessed as effect on probing/feeding bout on mustard plants at 7.1 g a.i./1000 plants measured as number of potential drops by electronic penetration graph analysis (reference value: 0.7 +/- 0.11 /hr). The format is functional.
Assay [13] relates to Frankliniella fusca. Nature of the assay: Insecticidal activity against Frankliniella fusca assessed as reduction in number of thrips isolated per compound pre-treated tobacco plant infected with tomato spotted wilt tospovirus at 9.9 g a.i./1000 plants in green house conditions relative to control. The format is functional, organism-based.
In assay [14] the test system is Frankliniella fusca. Briefly: Insecticidal activity against Frankliniella fusca assessed as reduction in tomato spotted wilt tospovirus transmission in compound pre-treated tomato plant at 9.9 g a.i./1000 plants 60 days prior to 48 hr insect-infestation followed by foliar application at 7.1 g a.i./1000 plants measured after 21 days in green house conditions. The class given is functional. On the set-up: scale not given: the % may be the effect or the level left.

Assay [15] deals with Frankliniella fusca. Briefly: Insecticidal activity against Frankliniella fusca assessed as effect on probing/feeding bout on mustard plants at 14.4 g a.i./1000 plants measured as duration of potential drops by electronic penetration graph analysis (reference value: 0.06 +/- 0.03 min). The class given is functional.

Active and inactive are the calls of the source. The rule behind the calls is not given here.

`O=[N+]([O-])/N=C1\NCCN1Cc1ccc(Cl)nc1` [IMIDACLOPRID]: the Time in assay [1] is 1.41 min; in assay [3], 0.39 min; in assay [4], 0.52 min; in assay [15] it was 0.79 min. In addition, the Activity in [2] was 6.4%; in [5], 1.84 h⁻¹; in assay [6], 1.53 h⁻¹; in [7], 87%; in [8], 73%; in assay [9], 11.1%. For the same compound, the Activity was 1.53 h⁻¹ in assay [10], 74% in assay [11], 2.12 h⁻¹ in assay [12] and 82% in assay [14]. The result in [13] was Active.
